Laboratory results from PMC4388869 (Journal of neuroimmune pharmacology : the official journal …, 2015).
“And” between values parts separate entries of the source, which are not always exact repeats. Equal entries are not always repeated.

How the values were obtained:
[1] = biological target: T1, Y88F-hDAT (Homo sapiens, UniProt Q01959, Y88F); experiment: Basal substrate efflux assay, CHO cells with Y88F-hDAT; format: cell-based
[2] = biological target: T1, Y88F-hDAT; format: cell-based
[3] = biological target: T2, Y470A-hDAT (Homo sapiens, UniProt Q01959, Y470A); format: cell-based
T2 sequence (Q01959 whole entry Y470A): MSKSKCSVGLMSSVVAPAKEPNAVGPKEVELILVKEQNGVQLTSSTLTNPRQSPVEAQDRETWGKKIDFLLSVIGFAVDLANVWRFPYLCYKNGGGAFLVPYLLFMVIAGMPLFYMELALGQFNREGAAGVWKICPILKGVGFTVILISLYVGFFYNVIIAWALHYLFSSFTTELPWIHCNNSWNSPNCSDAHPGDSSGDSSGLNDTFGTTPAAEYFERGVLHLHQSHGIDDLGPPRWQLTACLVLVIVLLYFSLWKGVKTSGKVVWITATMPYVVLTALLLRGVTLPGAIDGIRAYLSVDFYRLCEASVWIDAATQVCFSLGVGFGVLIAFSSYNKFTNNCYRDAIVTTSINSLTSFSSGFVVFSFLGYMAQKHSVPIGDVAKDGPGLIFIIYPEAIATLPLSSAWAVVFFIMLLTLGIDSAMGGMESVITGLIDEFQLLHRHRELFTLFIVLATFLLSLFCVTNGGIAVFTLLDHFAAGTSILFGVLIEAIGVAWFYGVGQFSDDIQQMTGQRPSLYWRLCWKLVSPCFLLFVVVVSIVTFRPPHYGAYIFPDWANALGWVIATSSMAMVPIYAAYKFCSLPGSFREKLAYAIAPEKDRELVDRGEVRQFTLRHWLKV

[4] = biological target: T3, K92M-hDAT (Homo sapiens, UniProt Q01959, K92M); experiment: Basal substrate efflux assay, CHO cells with K92M-hDAT; format: cell-based
T3 sequence (Q01959 whole entry K92M): as the sequence (Q01959 whole entry Y470A) above, with K92M, A470Y counted along it

[5] = biological target: T3, K92M-hDAT; format: cell-based
[6] = biological target: T4, Y470F-hDAT (Homo sapiens, UniProt Q01959, Y470F); experiment: Basal substrate efflux assay, CHO cells with Y470F-hDAT; format: cell-based
T4 sequence (Q01959 whole entry Y470F): as the sequence (Q01959 whole entry Y470A) above, with A470F counted along it

[7] = biological target: T2, Y470A-hDAT; experiment: Basal substrate efflux assay, CHO cells with Y470A-hDAT; format: cell-based
[8] = biological target: Y470H-hDAT (Homo sapiens, UniProt Q01959, Y470H); experiment: Basal substrate efflux assay, CHO cells with Y470H-hDAT; format: cell-based
Y470H-hDAT, sequence (Q01959 whole entry Y470H): as the sequence (Q01959 whole entry Y470A) above, with A470H counted along it

[9] = biological target: T4, Y470F-hDAT; format: cell-based
[10] = biological target: T5, WT hDAT (Homo sapiens, UniProt Q01959); experiment: Basal substrate efflux assay, CHO cells with WT hDAT; format: cell-based; conditions: preloading [3H]MPP+ 5 nM, 30 min
T5 sequence (Q01959 whole entry): as the sequence (Q01959 whole entry Y470A) above, with A470Y counted along it

[11] = biological target: T1, Y88F-hDAT; experiment: [3H]WIN 35,428 binding assay, Y88F-hDAT; conditions: ZnCl2 10 µM, CHO cells
[12] = biological target: T2, Y470A-hDAT; experiment: [3H]WIN 35,428 binding assay, Y470A-hDAT; conditions: ZnCl2 10 µM, CHO cells
[13] = biological target: T5, WT hDAT; experiment: [3H]WIN 35,428 binding assay, WT hDAT; conditions: ZnCl2 10 µM, CHO cells
[14] = biological target: T3, K92M-hDAT; experiment: [3H]WIN 35,428 binding assay, K92M-hDAT; conditions: ZnCl2 10 µM, CHO cells
[15] = biological target: T4, Y470F-hDAT; experiment: [3H]WIN 35,428 binding assay, Y470F-hDAT; conditions: ZnCl2 10 µM, CHO cells
[16] = biological target: T5, WT hDAT; format: cell-based; conditions: ZnCl2 10 µM, CHO cells
[17] = preloading 0.05 µM [3H]DA, 20 min, CHO cells
[18] = transfected PC12 cells (Fig. 4 legend: CHO), room temperature, 8 min
[19] = preloading [3H]MPP+ 5 nM, 30 min, CHO cells

T1 sequence (Q01959 whole entry Y88F): as the sequence (Q01959 whole entry Y470A) above, with Y88F, A470Y counted along it

Q: Which “total [3H]DA in the cells at the start of the efflux experiment” value (“total [3H]DA in the cells at the start” for short) [1, 17] does the source give for NCCc1ccc(O)c(O)c1 [DA, dopamine] here?
A: 41805 ± 6887 dpm

Q: What about the “Vmax of [3H]DA uptake” value [2, 18] of the same compound?
A: 14.8 ± 3.7 pmol/min/10^5 cells

Q: And the “Vmax of [3H]DA uptake” value ([3]; transfected PC12 cells)?
A: 1.2 ± 0.2 pmol/min/10^5 cells

Q: And the “basal fractional [3H]DA efflux compared to WT hDAT” value ([4]; at 1 and 10 min)?
A: elevated

Q: And the “total [3H]DA in the cells at the start” value [4, 17]?
A: 9655 ± 2160 dpm

Q: What about the “Vmax of [3H]DA uptake” value [5, 18] of the same compound?
A: 4.5 ± 1.7 pmol/min/10^5 cells

Q: And the “basal DA efflux compared to WT hDAT” value [6]?
A: no effect

Q: And the “total [3H]DA in the cells at the start” value [6, 17]?
A: 20908 ± 4209 dpm

Q: And the “basal fractional [3H]DA efflux compared to WT hDAT” value ([7]; at 1 and 10 min)?
A: elevated

Q: And the “total [3H]DA in the cells at the start” value [7, 17]?
A: 1158 ± 123 dpm

Q: And the “basal fractional [3H]DA efflux compared to WT hDAT” value ([8]; at 1, 10, 20 min)?
A: elevated

Q: And the “total [3H]DA in the cells at the start” value [8, 17]?
A: 2488 ± 150 dpm

Q: What about the “Km of [3H]DA uptake compared to WT hDAT” value ([9]; transfected PC12 cells) of the same compound?
A: did not alter

Q: And the “Vmax of [3H]DA uptake compared to WT hDAT” value ([9]; transfected PC12 cells)?
A: did not alter

Q: Which “total [3H]MPP+ in the cells at the start of the efflux experiment” value (“total [3H]MPP+ in the cells at the start” for short) [10] does the source give for C[n+]1ccc(-c2ccccc2)cc1 [MPP^+, 1-methyl-4-phenylpyridinium] here?
A: 12120 ± 397 dpm and 15516 ± 920 dpm

Q: What about the “basal fractional [3H]MPP+ efflux compared to WT hDAT” value ([1]; at all time points) of the same compound?
A: did not alter

Q: What about the “total [3H]MPP+ in the cells at the start” value [1, 19] of the same compound?
A: 5695 ± 450 dpm

Q: What about the “basal fractional [3H]MPP+ efflux compared to WT hDAT” value ([4]; at all time points) of the same compound?
A: did not alter

Q: And the “total [3H]MPP+ in the cells at the start” value [4, 19]?
A: 967 ± 121 dpm

Q: And the “basal MPP+ efflux compared to WT hDAT” value [6]?
A: no effect

Q: What about the “total [3H]MPP+ in the cells at the start” value [6, 19] of the same compound?
A: 7399 ± 359 dpm

Q: And the “basal fractional [3H]MPP+ efflux compared to WT hDAT” value ([7]; at all time points)?
A: elevated

Q: And the “total [3H]MPP+ in the cells at the start” value [7, 19]?
A: 460 ± 46 dpm

Q: And the “total [3H]MPP+ in the cells at the start” value [8, 19]?
A: 602 ± 28 dpm

Q: How did the “decrease of [3H]DA uptake by Zn2+ relative to control” value ([2]; ZnCl2 10 µM, CHO cells) turn out when [Cl-].[Cl-].[Zn+2] [Zn^2+, ZnCl2] was run?
A: 73%

Q: And the “effect of Zn2+ on [3H]WIN 35,428 binding” value [11]?
A: did not significantly alter

Q: And the “decrease of [3H]DA uptake by Zn2+ relative to control” value ([3]; ZnCl2 10 µM, CHO cells)?
A: 72%

Q: And the “effect of Zn2+ on [3H]WIN 35,428 binding” value [12]?
A: but not in Y470F-hDAT and Y470A-hDAT

Q: And the “increase of [3H]WIN 35,428 binding by Zn2+ relative to control” value [13]?
A: 48% and 54%

Q: What about the “decrease of [3H]DA uptake by Zn2+ relative to control” value ([5]; ZnCl2 10 µM, CHO cells) of the same compound?
A: 81%

Q: What about the “effect of Zn2+ on [3H]WIN 35,428 binding” value [14] of the same compound?
A: did not significantly alter

Q: And the “effect of Zn2+ on [3H]WIN 35,428 binding” value [15]?
A: but not in Y470F-hDAT and Y470A-hDAT

Q: What about the “decrease of [3H]DA uptake by Zn2+ relative to control” value [16] of the same compound?
A: 47% and 48%

Q: What about the “decrease of [3H]DA uptake by Zn2+ relative to control” value ([9]; ZnCl2 10 µM, CHO cells) of the same compound?
A: 49%
